Measurements taken from patent EP2785358B1, “INSULIN-MIMETICS AS THERAPEUTIC ADJUNCTS FOR BONE REGENERATION” (priority 2011, dated 2013).
Several values for one entry are separate records, joined by “and”; a condition that tells them apart may be missing. Identical values can stand only once. Marks after values point to notes of the source that are not given here.

What was measured:
[1] = test system: femur fractures; experiment: Torsional mechanical testing, local VAC without a carrier in normal rats; assay type: in vivo, non-diabetic BB Wistar rats; parameters: Percent Effective Shear Modulus / Percent Effective Shear Stress: scale not given: direction of the effect not stated beside the values
Experimental: A closed mid-diaphyseal fracture surgery was performed on the right femur of each rat as described previously. […] A closed, midshaft fracture was then created using a three-point bending fracture instrument (BBC Specialty Automotive, Linden NJ) and confirmed with X-rays immediately post-fracture.

[2] = test system: femur fractures; experiment: Early immunohistochemistry (BrdU cell proliferation), local VAC; assay type: in vivo, BB Wistar rats
Experimental: At days 2, 4, and 7, and 10, animals were injected intraperitoneally with 30 mg/kg of 5-bromo-2'deoxyuridine (BrdU, Sigma Chemical Co., St. Louis, MO) one hour prior to sacrifice to label replicating cells as a measure of cellular proliferation. The fractured femurs were resected and fixed in formalin, decalcified (Immunocal, Decal Corp., Tallman, NY), embedded in paraffin, and sectioned longitudinally (5 µm thick). Cells positive for BrdU incorporation were detected by immunohistochemistry using commercially available reagents (DAKO Corp., Carpentaria, California). Digital images of each fracture were collected with an Olympus BH2-RFCA microscope equipped with a Nikon DXM1200f camera. For each specimen, callus area was measured and the BrdU positive cells in the periosteal callus region were counted using Image Pro Plus software. All BrdU positive cells in the external callus to a maximum of 1 cm proximal and distal of the fracture site and 3 mm from the external surface of the femur were counted. The number of BrdU positive cells was normalized per unit area of callus and only one datum per rat (BrdU positive cells per mm2) was used for the statistical analysis.

[3] = test system: femur fractures; experiment: Histomorphometry, local VAC without a carrier; assay type: in vivo, BB Wistar rats; conditions: for % Cartilage / % Mineralized Tissue / Callus Area: no carrier
Source text: Two independent reviewers were used to minimize inconsistencies.

[4] = Vanadium quantification in femur by atomic absorption spectrophotometry; assay type: in vivo, BB Wistar rats; conditions: 0.1 mL of 4.35 mg/mL VAC solution (approximately 1.5 mg VAC/kg) into femoral canal
Experimental: BB Wistar rats were anesthetized and confirmed to be non-responsive to external stimuli before beginning the surgical procedure. The anesthetized rat was be exsanguinated by cardiac puncture using a 10 ml syringe with a 22 gauge needle after shallow puncture just lateral to the sternum and through the intercostal space. After puncturing the dermis and cardiac wall slight backpressure was placed on the plunger to withdraw blood from the ventricle. The collected blood was transferred to an appropriate container used for collection of plasma (heparinized) or serum (non-heparinized). Following the cardiac puncture, the rats were euthanized via cervical dislocation.
The excised femora were be stripped of adhering muscle, tendon and other tissue after which the bones were rinsed three times with deionized water, and then placed on glassine paper and air dried. The pin was rinsed once and stored in a clean conical tube. The liver, kidneys, brain, and left humerous collected were rinsed 3x and air dried. The objective of "drying" was to remove adhering water droplets after the water rinse and to allow the true tissue weight to be recorded as precisely as possible. […] The organs were then placed into a low temperature (-80 degrees Celsius) freezer for storage until future analysis (quantification not currently planned). […]

[5] = test system: femur fractures; experiment: Long-term radiographic analysis at twelve weeks, local VAC; assay type: in vivo, normal (non-diabetic) rats; conditions: for ectopic bone formation on radiographs: twelve weeks post-fracture
Experimental: The effect of local vanadium therapy on healing of femur fractures in normal (non-diabetic) rats was measured by radiographic analysis.

[6] = VAC 0.5 mg/kg local, no carrier, normal rats, 4 weeks
[7] = VAC 0.5 mg/kg local, no carrier, normal rats, 4 weeks, normalized to intact femur
[8] = VAC 1.5 mg/kg Autoclaved, no carrier, four weeks
[9] = VAC 1.5 mg/kg Gamma Irradiated, no carrier, four weeks
[10] = VAC 1.5 mg/kg local, no carrier, normal rats, 5 weeks
[11] = VAC 1.5 mg/kg local, rats of advanced age (190-195 days), four weeks
[12] = VAC 1.5 mg/kg without sterilization, no carrier, four weeks
[13] = VAC 1.5 mg/kg without sterilization, no carrier, four weeks, normalized to intact femur
[14] = VAC 3.0 mg/kg local, no carrier, normal rats, 4 weeks
[15] = VAC 3.0 mg/kg local, no carrier, normal rats, 4 weeks, normalized to intact femur
[16] = VAC 1.5 mg/kg local, 10 Days Post-Fracture
[17] = VAC 1.5 mg/kg local, 14 Days Post-Fracture
[18] = VAC 1.5 mg/kg local, 21 Days Post-Fracture
[19] = VAC 3.0 mg/kg local, 10 Days Post-Fracture
[20] = VAC 3.0 mg/kg local, 14 Days Post-Fracture
[21] = VAC 3.0 mg/kg local, 21 Days Post-Fracture

**Q.** With `CC(=O)/C=C(/C)[O-].CC(=O)/C=C(/C)[O-].[O]=[V+2]` [VAC, Vanadyl acetylacetonate] as the compound, how does the “Percent maximum torsional rigidity” value ([1]; VAC 0.25 mg/kg local, no carrier, normal rats, 4 weeks, normalized to intact femur) read?
**A.** 67 ± 21 ^∗ Percent

**Q.** What about the “Maximum Torque to Failure” value [1, 6] of the same compound?
**A.** 362 ± 49 ^∗,# Nmm

**Q.** And the “Maximum Torsional Rigidity” value [1, 6]?
**A.** 45,877 ± 13,079^∗ Nmm^2/rad

**Q.** What about the “Percent Maximum Torque to Failure” value [1, 7] of the same compound?
**A.** 72 ± 19 ^∗ Percent

**Q.** What about the “Percent maximum torsional rigidity” value [1, 7] of the same compound?
**A.** 103 ± 23 ^∗,# Percent

**Q.** What about the “Effective Shear Modulus” value [1, 8] of the same compound?
**A.** 9.6×10^2 ± 7.8×10^2 MPa

**Q.** And the “Maximum Torsional Rigidity” value [1, 8]?
**A.** 3.4×10^4 ± 1.5×10^4* Nmm^2/rad and 3.4×10^4 ± 1.5×10^4∗ Nmm^2/rad

**Q.** What about the “Percent maximum torsional rigidity” value ([1]; VAC 1.5 mg/kg Autoclaved, no carrier, four weeks, normalized to intact femur) of the same compound?
**A.** 70 ± 31 ^∗ Percent

**Q.** And the “Effective Shear Modulus” value [1, 9]?
**A.** 7.9×10^2 ± 2.4×10^2 MPa

**Q.** And the “Maximum Torsional Rigidity” value [1, 9]?
**A.** 2.6×10^4 ± 3.7×10^3 Nmm^2/rad

**Q.** And the “Maximum Torque to Failure” value [1, 10]?
**A.** 471 ± 91 Nmm

**Q.** And the “Maximum Torsional Rigidity” value [1, 10]?
**A.** 34,522 ± 8,347^* Nmm^2/rad

**Q.** And the “Effective Shear Modulus” value [1, 11]?
**A.** 1.3×10^3 ± 1.3×10^3 MPa

**Q.** What about the “Effective Shear Stress” value [1, 11] of the same compound?
**A.** 43± 17 MPa

**Q.** What about the “Maximum Torsional Rigidity” value [1, 11] of the same compound?
**A.** 3.0×10^4 ± 1.8×10^4 Nmm^2/rad

**Q.** What about the “Mean Angle at Failure” value [1, 11] of the same compound?
**A.** 12± 4 degrees

**Q.** And the “Percent Maximum Torque to Failure” value ([1]; VAC 1.5 mg/kg local, rats of advanced age (190-195 days), four weeks, normalized to intact femur)?
**A.** 44 ± 10^∗ Percent

**Q.** What about the “Effective Shear Modulus” value [1, 12] of the same compound?
**A.** 2.5×10^3 ± 2.4×10^3 MPa

**Q.** What about the “Effective Shear Stress” value [1, 12] of the same compound?
**A.** 69 ± 59 MPa

**Q.** What about the “Maximum Torque to Failure” value [1, 12] of the same compound?
**A.** 329 ± 117 ^∗ Nmm

**Q.** What about the “Maximum Torsional Rigidity” value [1, 12] of the same compound?
**A.** 3.5×10^4 ± 1.7×10^4* Nmm^2/rad and 3.5×10^4 ± 1.7×10^4∗ Nmm^2/rad

**Q.** And the “Percent Effective Shear Modulus” value [1, 13]?
**A.** 23 ± 12 ^∗ Percent

**Q.** And the “Percent maximum torsional rigidity” value [1, 13]?
**A.** 76 ± 28 ^∗ Percent

**Q.** What about the “Effective Shear Modulus” value [1, 14] of the same compound?
**A.** 2,948 ± 1,218 ^∗ MPa

**Q.** And the “Effective Shear Stress” value [1, 14]?
**A.** 101 ± 18 ^∗,#,& MPa

**Q.** And the “Maximum Torque to Failure” value [1, 14]?
**A.** 409 ± 43 ^∗,# Nmm

**Q.** And the “Maximum Torsional Rigidity” value [1, 14]?
**A.** 41,007 ± 11,236 ^∗ Nmm^2/rad

**Q.** And the “Percent Effective Shear Modulus” value [1, 15]?
**A.** 20 ± 11 ^∗ Percent

**Q.** And the “Percent Effective Shear Stress” value [1, 15]?
**A.** 30 ± 12 ^∗,# Percent

**Q.** And the “Percent Maximum Torque to Failure” value [1, 15]?
**A.** 79 ± 12 ^∗ Percent

**Q.** What about the “Percent maximum torsional rigidity” value [1, 15] of the same compound?
**A.** 78 ± 10 ^∗ Percent

**Q.** And the “Maximum Torsional Rigidity” value ([1]; VAC 3.0 mg/kg local, no carrier, normal rats, 5 weeks)?
**A.** 37,496 ± 12,846^∗ Nmm^2/rad

**Q.** And the “increase in mechanical parameter of torsion” value ([1]; VAC therapeutic dosage range 0.5 to 3.0 mg/Kg)?
**A.** two to three-fold

**Q.** And the “cell proliferation (BrdU positive cells) in the periosteum versus control” value ([2]; seven and ten days post-fracture, p < 0.05)?
**A.** significantly more proliferating cells per unit area

**Q.** And the “cell proliferation (BrdU positive cells) versus control” value ([2]; two or four days post-fracture)?
**A.** no significant differences

**Q.** What about the “% Cartilage” value [3, 16] of the same compound?
**A.** 30.6 ± 12.4^∗ (n=7) %

**Q.** And the “% Mineralized Tissue” value [3, 16]?
**A.** 15.8 ± 5.1 (n=7) %

**Q.** And the “Callus Area” value [3, 16]?
**A.** 18.4 ± 3.6 (n=7) mm^2

**Q.** And the “% Cartilage” value [3, 17]?
**A.** 14.2 ± 4.9 (n=5) %

**Q.** And the “% Mineralized Tissue” value [3, 17]?
**A.** 21.3 ± 2.1^∗ (n=5) %

**Q.** What about the “Callus Area” value [3, 17] of the same compound?
**A.** 21.7 ± 5.0 (n=5) mm^2

**Q.** And the “% Cartilage” value [3, 18]?
**A.** 11.0± 4.7 (n=5) %

**Q.** What about the “% Mineralized Tissue” value [3, 18] of the same compound?
**A.** 32.7 ± 2.9^∗ (n=5) %

**Q.** What about the “Callus Area” value [3, 18] of the same compound?
**A.** 20.1 ± 4.5 (n=5) mm^2

**Q.** What about the “percent cartilage compared to controls” value ([3]; VAC 1.5 mg/kg, 7 days (and 10 days), p < 0.05) of the same compound?
**A.** statistically higher

**Q.** And the “% Cartilage” value [3, 19]?
**A.** 17.8± 5.5 (n=5) %

**Q.** And the “% Mineralized Tissue” value [3, 19]?
**A.** 15.2 ± 3.4 (n=5) %

**Q.** And the “Callus Area” value [3, 19]?
**A.** 18.6 ± 2.9 (n=5) mm^2

**Q.** And the “% Cartilage” value [3, 20]?
**A.** 13.0 ± 6.4 (n=5) %

**Q.** And the “% Mineralized Tissue” value [3, 20]?
**A.** 21.9 ± 3.2^∗ (n=5) %

**Q.** What about the “Callus Area” value [3, 20] of the same compound?
**A.** 19.3 ± 3.1 (n=5) mm^2

**Q.** And the “% Cartilage” value [3, 21]?
**A.** 9.4± 5.7 (n=4) %

**Q.** And the “% Mineralized Tissue” value [3, 21]?
**A.** 33.4 ± 5.2 (n=4) %

**Q.** And the “Callus Area” value [3, 21]?
**A.** 20.3± 5.1 (n=4) mm^2

**Q.** What about the “time locally injected VAC remains bound within the fractured femora” value [4] of the same compound?
**A.** approximately two weeks

**Q.** And the “ectopic bone formation on radiographs” value ([5]; VAC high (3.0 mg/kg))?
**A.** no evidence of ectopic bone formation

**Q.** What about the “ectopic bone formation on radiographs” value ([5]; VAC low (1.5 mg/kg)) of the same compound?
**A.** no evidence of ectopic bone formation

**Q.** What about the “toxic/carcinogenic effect (remodeling of femora)” value ([5]; local VAC, throughout fracture healing, normal remodeling) of the same compound?
**A.** no evidence of a toxic/carcinogenic effect
